The source of these data is patent US11584733B2, “Selective histone deacetylase inhibitors for the treatment of human disease” (Shuttle Pharmaceuticals, Inc., priority 2017, dated 2023).

For test [1], the target named is Human recombinant HDAC1 (Homo sapiens, UniProt Q13547). Put plainly: HDAC isomer assay, Fluor-de-Lys, HDAC1. In kind it is biochemical. The method, then: (§1) The HDAC isomer (HDAC1, 3, and 6) assays were performed as follows:
(§2) Materials: Human recombinant HDAC isomer (HDAC1, HDAC3, and HDAC6); Fluor-de-Lys HDAC substrates; 360 nm excitation 460 nm emission Plate Reader; Disposable pipettes; Pipet-aid; Pipette tips; Micro-pipetter; DMSO; Sterile micro-tubes and conical tubes; and Micro-centrifuge.
(§3) Test compounds and control preparation: All test compounds' stock solutions were made in 100% DMSO. Test compound dilutions were made in HDAC Assay buffer with a final concentration of DMSO less than or equal to 1%. Vehicle control was HDAC Assay buffer with 1% DMSO.
(§4) The reagents for the assay were prepared as follows:
(§5) 1. All kit components were defrosted and these, and all dilutions described below, were kept on ice until use. All undiluted kit components are stable for several hours on ice.
(§6) 2. A sufficient amount of HDAC source diluted in Assay Buffer (BML-KI143) was prepared to provide for the assays that were performed (# of wells×15 μl). A 30-fold dilution of the HeLa Extract means that 15p L contains 0.5 μl of the undiluted Extract, an appropriate amount to use per well.
(§7) 3. Dilution(s) of SAHA and/or Test Inhibitors were prepared in Assay Buffer (BML-KI143). […]
(§8) 6. Samples were read in a microtiter-plate reading fluorimeter capable of excitation at a wavelength in the range 350-380 nm and detection of emitted light in the range 440-460 nm.

Test [2] deals with Human recombinant HDAC3 (Homo sapiens, UniProt O15379). Put plainly: HDAC isomer assay, Fluor-de-Lys, HDAC3. In kind it is biochemical. The method, then:
as §1, §2, §3, §4, §5, §6, §7, §8

Chain of Human recombinant HDAC3 (O15379 whole entry): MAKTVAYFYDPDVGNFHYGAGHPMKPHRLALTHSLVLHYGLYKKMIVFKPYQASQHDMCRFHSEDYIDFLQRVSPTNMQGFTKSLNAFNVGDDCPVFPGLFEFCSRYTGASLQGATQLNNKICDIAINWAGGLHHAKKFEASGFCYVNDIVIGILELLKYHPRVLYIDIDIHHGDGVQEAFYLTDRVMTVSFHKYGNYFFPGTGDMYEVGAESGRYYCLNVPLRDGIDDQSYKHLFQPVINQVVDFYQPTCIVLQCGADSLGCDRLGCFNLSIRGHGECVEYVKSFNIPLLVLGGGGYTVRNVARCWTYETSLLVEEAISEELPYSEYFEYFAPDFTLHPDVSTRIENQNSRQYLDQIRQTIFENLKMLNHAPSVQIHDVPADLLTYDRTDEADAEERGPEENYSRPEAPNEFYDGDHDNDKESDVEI
Chain of Human recombinant HDAC3 (Q9Y618 395-489 partner limits assumed): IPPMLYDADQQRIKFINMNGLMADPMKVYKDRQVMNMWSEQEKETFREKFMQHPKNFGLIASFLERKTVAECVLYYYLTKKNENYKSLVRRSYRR
Chain of Human recombinant HDAC1 (Q13547 whole entry): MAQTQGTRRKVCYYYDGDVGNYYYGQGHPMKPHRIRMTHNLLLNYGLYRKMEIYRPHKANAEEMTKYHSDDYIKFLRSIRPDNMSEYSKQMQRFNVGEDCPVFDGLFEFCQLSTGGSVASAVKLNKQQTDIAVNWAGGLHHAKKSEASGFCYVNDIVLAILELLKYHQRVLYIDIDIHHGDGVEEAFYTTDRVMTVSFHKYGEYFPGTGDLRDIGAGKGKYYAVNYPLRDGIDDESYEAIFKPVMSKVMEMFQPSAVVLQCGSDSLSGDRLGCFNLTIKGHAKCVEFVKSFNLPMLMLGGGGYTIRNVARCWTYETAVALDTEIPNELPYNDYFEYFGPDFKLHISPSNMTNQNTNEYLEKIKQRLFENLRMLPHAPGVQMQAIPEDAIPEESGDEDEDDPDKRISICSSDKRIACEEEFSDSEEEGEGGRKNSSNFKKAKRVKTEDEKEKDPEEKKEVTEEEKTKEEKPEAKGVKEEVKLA

In the case of `O=C(CCCCCCC(=O)Nc1cccc2c1CN(C1CCC(=O)NC1=O)C2=O)NO` (stereo not shown) [SP-2-93, N^1-(2-(2,6-dioxopiperidin-3-yl)-1-oxoisoindolin-4-yl)-N^8-hydroxyoctanediamide], the EC50 in test [1] (Example 4, FIG. 9) was determined as 1540 nM; in test [2] (Example 4, FIG. 10), 3070 nM. In addition, the IC50 in test [1] (Example 6, FIG. 18, 2 mg/mL formulation in 5% DMSO/40% PEG 400/55% PBS, read-out: IC50 against HDAC1 protein) is 1540 nM; in test [2] (Example 6, FIG. 18, 2 mg/mL formulation in 5% DMSO/40% PEG 400/55% PBS, read-out: IC50 against HDAC3 protein) it was 3070 nM.
